According to patent publication EP4745134A1 (Jiangsu Yahong Meditech Co., Ltd., priority 2023, dated 2025):

What was measured:
[1] = target: PRMT5-MTA (Homo sapiens, UniProt O14744); assay: Enzymatic inhibitory activity against PRMT5-MTA (AlphaScreen); format: biochemical; details: read-out: IC50
In short: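 PRMT5/[…] (1 nM) was preincubated for 30 min at room temperature with 1 µM […] and 2.5 µM SAM, then exposed to compound (10-point, 3-fold from 1000 nM) for 15 min at 23 °C. Histone H4 substrate (5 nM) was added and reacted for 45 min at 23 °C. Symmetric dimethyl-R3 H4 was detected by AlphaScreen and IC50 calculated.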

[2] = tested on: HCT116 MTAP KO cells; assay: Inhibitory activity against cell proliferation (CellTiter Glo, 6 days), HCT116 MTAP KO; format: cell-based; details: for IC50: Homo sapiens, HCT-116, 144 h, HCT116 MTAP KO cells, 6 days, CellTiter Glo, read-out: HCT116 MTAP KO IC50; for Selectivity HCT 116-WT/ HCT116 MTAP KO: ratio of IC50 HCT116-WT / HCT116 MTAP KO
In short: (§1)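 Viability is measured by CellTiter Glo luminescence on day 7, following a 6-day treatment with compounds serially diluted 4-fold over 8 points from 10000 nM. Both lines are plated at 250 cells per well and cultured overnight beforehand.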

[3] = tested on: HCT116-WT cells; assay: Inhibitory activity against cell proliferation (CellTiter Glo, 6 days), HCT116-WT; format: cell-based; details: 144 h, HCT116-WT cells, 6 days, CellTiter Glo; read-out: HCT116-WT IC50
In short: as §1

[4] = tested on: MTAP-deficient HCT116; assay: Pharmacodynamic test in human colon cancer xenograft model (MTAP-deficient HCT116); format: in vivo; details: 100 mpk, orally by gavage once a day, HCT116 MTAP deficient mice xenograft
Method: The compounds (100 mpk, blank vehicle as a control) were orally administered to the HCT116 MTAP deficient mice (cell source: creative biogene-CSC-RT2701) of human colon cancer xenograft model by gavage daily during the experimental planning period. The positive compound AMG9747 was synthesized according to the method reported in the patent WO2021163344A1. The compounds were formulated as follows: weighing 100.00 mg of a test compound, adding it to 10 mL of 0.5% MC4000+0.2% Tween 80, vortexing and shaking to prepare a suspension, i.e., a dose of 100 mpk. Each group had 8 mice and was subjected to administration by gavage once a day. The tumor volume was measured once in groups before administration, and measured on days 3, 6, 10, 13, 16 and 19 respectively after administration. The positive drug (synthesized according to the patent WO2021163344A1) AMG-9747 was used as a control, and compound AMG-9747 has a structure of: [drawing 1174] Table 3. Percentage of inhibition of the compounds of the present invention on tumor growth in the human colon cancer xenograft (MTAP-deficient HCT116) model

PRMT5-MTA, sequence (O14744 whole entry): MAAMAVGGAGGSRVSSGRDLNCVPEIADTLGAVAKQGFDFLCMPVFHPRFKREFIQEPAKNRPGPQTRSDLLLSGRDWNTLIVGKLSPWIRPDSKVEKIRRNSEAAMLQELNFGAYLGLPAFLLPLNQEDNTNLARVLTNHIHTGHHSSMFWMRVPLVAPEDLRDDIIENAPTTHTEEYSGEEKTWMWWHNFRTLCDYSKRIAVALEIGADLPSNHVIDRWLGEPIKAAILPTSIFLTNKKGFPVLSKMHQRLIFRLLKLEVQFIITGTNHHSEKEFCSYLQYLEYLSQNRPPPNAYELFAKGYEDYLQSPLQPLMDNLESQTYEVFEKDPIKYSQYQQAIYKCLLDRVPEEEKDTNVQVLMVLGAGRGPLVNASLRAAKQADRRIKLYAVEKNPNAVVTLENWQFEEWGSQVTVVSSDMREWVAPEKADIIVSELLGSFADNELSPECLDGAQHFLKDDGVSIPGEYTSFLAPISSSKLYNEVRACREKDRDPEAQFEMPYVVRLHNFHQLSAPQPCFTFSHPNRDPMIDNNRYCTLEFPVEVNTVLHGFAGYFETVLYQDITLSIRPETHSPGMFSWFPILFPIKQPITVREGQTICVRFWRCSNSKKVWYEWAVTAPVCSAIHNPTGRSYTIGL
PRMT5-MTA, sequence (Q9BQA1 whole entry partner): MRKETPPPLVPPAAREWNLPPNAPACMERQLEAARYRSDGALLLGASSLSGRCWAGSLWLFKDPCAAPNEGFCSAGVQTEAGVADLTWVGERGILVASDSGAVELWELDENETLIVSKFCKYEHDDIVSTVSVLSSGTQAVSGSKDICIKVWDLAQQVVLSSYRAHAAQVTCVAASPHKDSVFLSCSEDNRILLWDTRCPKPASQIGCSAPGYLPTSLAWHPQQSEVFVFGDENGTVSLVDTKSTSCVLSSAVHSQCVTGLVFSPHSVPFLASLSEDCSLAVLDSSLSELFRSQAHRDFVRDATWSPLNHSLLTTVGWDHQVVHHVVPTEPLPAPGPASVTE

SMILES	IC50 [1]	IC50 [2]	Selectivity HCT 116-WT/ HCT116 MTAP KO [2]	IC50 [3]	Percentage of tumor growth inhibition [4]
Cc1cc2cc(C(=O)N(Cc3ccc(-c4scnc4C)cn3)N(c3ncccn3)C3CC3)ccc2nc1N [Example 184, 2-amino-N'-cyclopropyl-3-methyl-N-((5-(4-methylthiazol-5-yl)pyridin-2-yl)methyl)-N'-(pyrimidin-2-yl)quinoline-6-carbohydrazide]	7.4 nM	13 nM	18.46	240 nM	81%
Cc1cc2cc(C(=O)N(Cc3ccc(-c4cnn(C(F)(F)F)c4)cn3)N(C)c3ncccn3)ccc2nc1N [Example 189, 2-amino-N',3-dimethyl-N'-(pyrimidin-2-yl)-N-((5-(1-(trifluoromethyl)-1H-pyrazol-4-yl)pyridin-2-yl)methyl)quinoline-6-carbohydrazide]	1.7 nM	55 nM	42.00	2310 nM	93%
Cc1cc2nc(N)c3cnn(C)c3c2cc1C(=O)N1CC(C)CN1c1ncc(Br)cc1F (stereo not drawn) [Example 392, (4-amino-1,7-dimethyl-1H-pyrazolo[4,3-c]quinolin-8-yl)(2-(5-bromo-3-fluoropyridin-2-yl)-4-methylpyrazolidin-1-yl)metha none]	4 nM	28 nM	40.21	1130 nM	69%
